Data published in PubChem BioAssay AID1963840 (Molecular Pharmacology Branch, DTP, NCI, 2024).

Tested on: 695427-040-R-J1-PDC complex spheroid viability
Assay: Anticancer human tumor 695427-040-R-J1-PDC patient-derived colon adenocarcinoma cell line growth inhibition [POLQ]
Conditions: for IC50: curve of first compound; for viability, T/C: stronger effect = lower value
Procedure, shortened: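 Growth inhibition in 3D: complex spheroids (tumor PDC, HUVEC, MSC) treated with POLQ inhibitor combinations; where Cmax unknown, highest tested concentration 10 microM, except SN-38 at 1 microM.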

[1] = second compound 0.0316 µM, first compound 0.0316 µM
[2] = second compound 0.0316 µM, first compound 0.1 µM
[3] = second compound 0.0316 µM, first compound 0.316 µM
[4] = second compound 0.0316 µM, first compound 1 µM
[5] = second compound 0.0316 µM, first compound 3.16 µM
[6] = second compound 0.0316 µM, first compound 10 µM
[7] = second compound 0.1 µM, first compound 0.0316 µM
[8] = second compound 0.1 µM, first compound 0.1 µM
[9] = second compound 0.1 µM, first compound 0.316 µM
[10] = second compound 0.1 µM, first compound 1 µM
[11] = second compound 0.1 µM, first compound 3.16 µM
[12] = second compound 0.1 µM, first compound 10 µM
[13] = second compound 0.316 µM, first compound 0.0316 µM
[14] = second compound 0.316 µM, first compound 0.1 µM
[15] = second compound 0.316 µM, first compound 0.316 µM
[16] = second compound 0.316 µM, first compound 1 µM
[17] = second compound 0.316 µM, first compound 3.16 µM
[18] = second compound 0.316 µM, first compound 10 µM
[19] = second compound 1 µM, first compound 0.0316 µM
[20] = second compound 1 µM, first compound 0.1 µM
[21] = second compound 1 µM, first compound 0.316 µM
[22] = second compound 1 µM, first compound 1 µM
[23] = second compound 1 µM, first compound 3.16 µM
[24] = second compound 1 µM, first compound 10 µM
[25] = second compound 3.16 µM, first compound 0.0316 µM
[26] = second compound 3.16 µM, first compound 0.1 µM
[27] = second compound 3.16 µM, first compound 0.316 µM
[28] = second compound 3.16 µM, first compound 1 µM
[29] = second compound 3.16 µM, first compound 3.16 µM
[30] = second compound 3.16 µM, first compound 10 µM
[31] = second compound 10 µM, first compound 0.0316 µM
[32] = second compound 10 µM, first compound 0.1 µM
[33] = second compound 10 µM, first compound 0.316 µM
[34] = second compound 10 µM, first compound 1 µM
[35] = second compound 10 µM, first compound 3.16 µM
[36] = second compound 10 µM, first compound 10 µM
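Note: spheroids exposed to compounds for seven days.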
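Throughout, for viability, T/C: 100% = DMSO vehicle control viability.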

`O=C(Nc1ccc(O)c(NS(=O)(=O)c2ccc(F)cc2)c1)c1ccc(-c2ccccc2)cc1` + Cc1cccc(N(C)C(=O)C2C(O)CCN2c2nc(C)cc(C(F)(F)F)c2C#N)c1 showed an IC50 (second compound 0.0316 µM) greater than 10 µM, an IC50 (second compound 0.1 µM) greater than 10 µM and an IC50 (second compound 0.316 µM) greater than 10 µM. For the same compound, the IC50 (second compound 1 µM) was greater than 10 µM, the IC50 (second compound 3.16 µM) was greater than 10 µM and the IC50 (second compound 10 µM) was greater than 10 µM. The viability, T/C [1] was 111%, the viability, T/C [2] was 107% and the viability, T/C [3] was 92.2%. For the same compound, the viability, T/C [4] was 103%, the viability, T/C [5] was 108% and the viability, T/C [6] was 98.4%. It also gave a viability, T/C [7] of 105%, a viability, T/C [8] of 101% and a viability, T/C [9] of 95.9%. The viability, T/C [10] was 99.5%, the viability, T/C [11] was 112% and the viability, T/C [12] was 88.2%. It also gave a viability, T/C [13] of 104%, a viability, T/C [14] of 103% and a viability, T/C [15] of 97.4%. For the same compound, the viability, T/C [16] was 101%, the viability, T/C [17] was 111% and the viability, T/C [18] was 86.9%. The viability, T/C [19] was 109%, the viability, T/C [20] was 95.9% and the viability, T/C [21] was 101%. The viability, T/C [22] was 94.4%, the viability, T/C [23] was 115% and the viability, T/C [24] was 92.3%. The viability, T/C [25] was 97.6%, the viability, T/C [26] was 101% and the viability, T/C [27] was 93.5%. The viability, T/C [28] was 103%, the viability, T/C [29] was 103% and the viability, T/C [30] was 93.6%. It also gave a viability, T/C [31] of 103%, a viability, T/C [32] of 92.2% and a viability, T/C [33] of 96.1%. It also gave a viability, T/C [34] of 94%, a viability, T/C [35] of 102% and a viability, T/C [36] of 82.6%.
In the case of `CC(=O)O[C@H]1C(=O)[C@@]2(C)[C@H]([C@H](OC(=O)c3ccccc3)[C@]3(O)C[C@H](OC(=O)[C@H](O)[C@@H](NC(=O)c4ccccc4)c4ccccc4)C(C)=C1C3(C)C)[C@]1(OC(C)=O)CO[C@@H]1C[C@@H]2O` + Nc1ccc(C#CCN(C(=O)Cc2ncc(C(F)(F)F)cc2C(F)(F)F)c2ccc(F)cc2)nn1, the IC50 (second compound 0.0316 µM) is reported as greater than 3 µM, the IC50 (second compound 0.1 µM) is reported as greater than 3 µM and the IC50 (second compound 0.316 µM) is reported as greater than 3 µM. It also gave an IC50 (second compound 1 µM) greater than 3 µM, an IC50 (second compound 3.16 µM) greater than 3 µM and an IC50 (second compound 10 µM) greater than 3 µM. It also gave a viability, T/C (second compound 0.0316 µM, first compound 0.00949 µM) of 98.2%, a viability, T/C (second compound 0.0316 µM, first compound 0.03 µM) of 93.4% and a viability, T/C (second compound 0.0316 µM, first compound 0.0949 µM) of 93.3%. For the same compound, the viability, T/C (second compound 0.0316 µM, first compound 0.3 µM) was 97.1%, the viability, T/C (second compound 0.0316 µM, first compound 0.949 µM) was 97.9% and the viability, T/C (second compound 0.0316 µM, first compound 3 µM) was 81.2%. For the same compound, the viability, T/C (second compound 0.1 µM, first compound 0.00949 µM) was 99.9%, the viability, T/C (second compound 0.1 µM, first compound 0.03 µM) was 99.6% and the viability, T/C (second compound 0.1 µM, first compound 0.0949 µM) was 91.8%. It also gave a viability, T/C (second compound 0.1 µM, first compound 0.3 µM) of 91.5%, a viability, T/C (second compound 0.1 µM, first compound 0.949 µM) of 89.5% and a viability, T/C (second compound 0.1 µM, first compound 3 µM) of 79.7%. It also gave a viability, T/C (second compound 0.316 µM, first compound 0.00949 µM) of 108%, a viability, T/C (second compound 0.316 µM, first compound 0.03 µM) of 101% and a viability, T/C (second compound 0.316 µM, first compound 0.0949 µM) of 88.4%. The viability, T/C (second compound 0.316 µM, first compound 0.3 µM) was 91.6%, the viability, T/C (second compound 0.316 µM, first compound 0.949 µM) was 88.9% and the viability, T/C (second compound 0.316 µM, first compound 3 µM) was 90.3%. The viability, T/C (second compound 1 µM, first compound 0.00949 µM) was 102%, the viability, T/C (second compound 1 µM, first compound 0.03 µM) was 93.3% and the viability, T/C (second compound 1 µM, first compound 0.0949 µM) was 102%. It also gave a viability, T/C (second compound 1 µM, first compound 0.3 µM) of 99.3%, a viability, T/C (second compound 1 µM, first compound 0.949 µM) of 90.9% and a viability, T/C (second compound 1 µM, first compound 3 µM) of 78.8%. The viability, T/C (second compound 3.16 µM, first compound 0.00949 µM) was 106%, the viability, T/C (second compound 3.16 µM, first compound 0.03 µM) was 84.7% and the viability, T/C (second compound 3.16 µM, first compound 0.0949 µM) was 95.1%. For the same compound, the viability, T/C (second compound 3.16 µM, first compound 0.3 µM) was 90.5%, the viability, T/C (second compound 3.16 µM, first compound 0.949 µM) was 88.2% and the viability, T/C (second compound 3.16 µM, first compound 3 µM) was 86.8%. It also gave a viability, T/C (second compound 10 µM, first compound 0.00949 µM) of 92.7%, a viability, T/C (second compound 10 µM, first compound 0.03 µM) of 82.7% and a viability, T/C (second compound 10 µM, first compound 0.0949 µM) of 86.7%. It also gave a viability, T/C (second compound 10 µM, first compound 0.3 µM) of 91.2%, a viability, T/C (second compound 10 µM, first compound 0.949 µM) of 90.2% and a viability, T/C (second compound 10 µM, first compound 3 µM) of 86.4%.
`COc1cc(C2c3cc4c(cc3C(OC3OC5COC(C)OC5C(O)C3O)C3COC(=O)C23)OCO4)cc(OC)c1O` (stereo unspecified) + Nc1ccc(C#CCN(C(=O)Cc2ncc(C(F)(F)F)cc2C(F)(F)F)c2ccc(F)cc2)nn1 was tested, and the IC50 (second compound 0.0316 µM) was greater than 10 µM, the IC50 (second compound 0.1 µM) was greater than 10 µM and the IC50 (second compound 0.316 µM) was greater than 10 µM. For the same compound, the IC50 (second compound 1 µM) was greater than 10 µM, the IC50 (second compound 3.16 µM) was greater than 10 µM and the IC50 (second compound 10 µM) was greater than 10 µM. For the same compound, the viability, T/C [1] was 104%, the viability, T/C [2] was 97.9% and the viability, T/C [3] was 98%. For the same compound, the viability, T/C [4] was 97.8%, the viability, T/C [5] was 95.2% and the viability, T/C [6] was 87.4%. The viability, T/C [7] was 99%, the viability, T/C [8] was 97.2% and the viability, T/C [9] was 100%. It also gave a viability, T/C [10] of 104%, a viability, T/C [11] of 102% and a viability, T/C [12] of 89.4%. The viability, T/C [13] was 98.4%, the viability, T/C [14] was 90.5% and the viability, T/C [15] was 98.3%. The viability, T/C [16] was 97.6%, the viability, T/C [17] was 113% and the viability, T/C [18] was 91.3%. It also gave a viability, T/C [19] of 101%, a viability, T/C [20] of 97.5% and a viability, T/C [21] of 105%. For the same compound, the viability, T/C [22] was 97.5%, the viability, T/C [23] was 106% and the viability, T/C [24] was 73.5%. For the same compound, the viability, T/C [25] was 96.2%, the viability, T/C [26] was 94.3% and the viability, T/C [27] was 98.5%. The viability, T/C [28] was 99.2%, the viability, T/C [29] was 101% and the viability, T/C [30] was 81.5%. The viability, T/C [31] was 92.7%, the viability, T/C [32] was 89% and the viability, T/C [33] was 88.8%. It also gave a viability, T/C [34] of 87.8%, a viability, T/C [35] of 85.9% and a viability, T/C [36] of 84.9%.
